Assay results published in ChEMBL document CHEMBL3808323, “Synthesis and evaluation of novel benzylphthalazine derivatives as hedgehog signaling pathway inhibitors” (Bioorg Med Chem Lett, 2016).
Calls of active or inactive are those of the source. The rule behind the calls is not given here.

Tests used:
Medulloblastoma cell = experiment: Antitumor activity against mouse ptch+/- and p53-/- medulloblastoma cells allografted in athymic nude mouse assessed as tumor growth inhibition at 40 mg/kg, bid administered via oral gavage measured twice per week by microcaliper; assay type: functional, organism-based
[1] = Inhibition of hedgehog signaling (unknown origin) expressed in mouse NIH/3T3 cells by Gli-dual-luciferase reporter assay; assay type: cell-based; settings: NIH3T3
[2] = Inhibition of cell proliferation in mouse ptch+/- and p53-/- medulloblastoma cells after 36 hrs by Brdu assay; assay type: functional
[3] = Cmax in Sprague-Dawley rat plasma at 10 mg/kg, po; assay type: ADME, organism-based; design: dose 10 mg/kg, route oral
[4] = Tmax in Sprague-Dawley rat plasma at 10 mg/kg, po; assay type: ADME, organism-based
[5] = Oral bioavailability in Sprague-Dawley rat plasma at 10 mg/kg; assay type: ADME, organism-based
Mus musculus = experiment: Toxicity in athymic nude mouse allografted with mouse ptch+/- and p53-/- medulloblastoma cells assessed as body weight loss at 40 mg/kg, bid administered via oral gavage; assay type: organism-based; settings: in vivo
[6] = AUC (0 to infinity) in Sprague-Dawley rat plasma at 10 mg/kg, po; assay type: ADME, organism-based; design: dose 10 mg/kg, route oral, time infinity
[7] = AUC (0 to infinity) in Sprague-Dawley rat plasma at 2 mg/kg, iv; assay type: ADME, organism-based; design: dose 2 mg/kg, time infinity, route intravenous
[8] = Systemic clearance in Sprague-Dawley rat plasma at 2 mg/kg, iv; assay type: ADME, organism-based
[9] = Volume of distribution at steady state in Sprague-Dawley rat plasma at 2 mg/kg, iv; assay type: ADME, organism-based; settings: read-out: Vdss
[10] = Half life in Sprague-Dawley rat plasma at 2 mg/kg, iv; assay type: ADME, organism-based

| SMILES | IC50 [1] | other results |
| --- | --- | --- |
| CC(C)(O)c1ccc(N2CCC(Nc3nnc(Cc4ccccc4)c4ccccc34)C2)nc1 (racemic) | 9.66 nM | – |
| CC(C)(O)c1ccc(OC2CN(c3nnc(Cc4ccccc4)c4ccccc34)C2)nc1 | 648 nM | – |
| CCC(O)(CC)c1ccc(NC2CCN(c3nnc(Cc4ccccc4)c4ccccc34)C2)nc1 (racemic) | 2.97 nM | – |
| CC(C)(O)c1ccc(NC2CCN(c3nnc(Cc4ccccc4)c4ccccc34)C2)nc1 (racemic) | 3.28 nM | – |
| CC(C)(O)c1ccc(NC2CCCN(c3nnc(Cc4ccccc4)c4ccccc34)C2)nc1 (racemic) | > 1000 nM | – |
| CS(=O)(=O)c1ccc(C(=O)Nc2ccc(Cl)c(-c3ccccn3)c2)c(Cl)c1 [VISMODEGIB] | 2.3 nM | – |
| CCOC(=O)c1ccc(N2CCC(Nc3nnc(Cc4ccccc4)c4ccccc34)C2)nc1 (racemic) | 45.7 nM | – |
| CC(=O)c1ccc(NC2CCN(c3nnc(Cc4ccccc4)c4ccccc34)CC2)nc1 | 2.45 nM | – |
| CCC(O)(CC)c1ccc(NC2CCN(c3nnc(Cc4ccccc4)c4ccccc34)CC2)nc1 | 10.3 nM | – |

Now from value to compound, other results behind:

| IC50 [1] | SMILES | other results |
| --- | --- | --- |
| 7.1 nM | CC(C)(O)c1ccc(N2CCN(c3nnc(Cc4ccccc4)c4ccccc34)CC2)nc1 | TGI (Medulloblastoma cell): Active; IC50 [2]: 44.6 nM |
| 8.76 nM | CCOC(=O)c1ccc(NC2CCN(c3nnc(Cc4ccccc4)c4ccccc34)C2)nc1 (racemic) | – |
| 6.66 nM | CN(c1ccc(C(C)(C)O)cn1)C1CCN(c2nnc(Cc3ccccc3)c3ccccc23)CC1 | – |
| 3.91 nM | CCC(O)(CC)c1ccc(N2CCC(Nc3nnc(Cc4ccccc4)c4ccccc34)C2)nc1 (racemic) | – |
| > 1000 nM | CC(=O)c1ccc(N(C)C2CCN(c3nnc(Cc4ccccc4)c4ccccc34)CC2)nc1 | – |
| > 1000 nM | CC(C)(O)c1ccc(N2CC3(C2)CN(c2nnc(Cc4ccccc4)c4ccccc24)C3)nc1 | – |
| 0.58 nM | CC(C)(O)c1ccc(NC2CCN(c3nnc(Cc4ccccc4)c4ccccc34)CC2)nc1 | Cmax [3]: 950 nM; Tmax [4]: 2 h; bioavailability [5]: 40.1%; TGI (Medulloblastoma cell): Active; Activity (Mus musculus): Non-toxic; AUC(0-inf) [6]: 3.28 µM·h; IC50 [2]: 38 nM; AUC(0-inf) [7]: 1.64 µM·h; clearance [8]: 42.1 mL/min/kg; Vd [9]: 2.16 L/kg; half-life [10]: 1.03 h |
| > 1000 nM | CCOC(=O)c1ccc(NC2CCCN(c3nnc(Cc4ccccc4)c4ccccc34)C2)nc1 (racemic) | – |
